Assay results taken from US7531329B2, “Carbonyl reductase, gene thereof and method of using the same” (Kaneka Corporation, priority 2002, dated 2009).

Test system: reductase RDR
Experiment: Substrate specificity of the reductase RDR (NADH oxidation, decrease in absorbance at 340 nm)
Type: biochemical, Devosia riboflavina IFO 13584
Settings: substrate 1 mM, NADH 0.25 mM, 100 mM phosphate buffer pH 6.5, 0.33% (v/v) dimethyl sulfoxide, 30° C.
In the case of `CCC(=O)Cc1ccccc1` [1-phenyl-2-butanone], the “% activity (relative value, activity to N-benzyl-3-pyrrolidinone taken as 100%)” value is reported as 147%.
With `CC(=O)c1ccccn1` [2-acetylpyridine] the “% activity (relative value, activity to N-benzyl-3-pyrrolidinone taken as 100%)” value was 13%.
For `CC(=O)c1ccc[nH]1` [2-acetylpyrrole], the “% activity (relative value, activity to N-benzyl-3-pyrrolidinone taken as 100%)” value was 70%.
In the case of `CCC(C)=O` [2-butanone], the “% activity (relative value, activity to N-benzyl-3-pyrrolidinone taken as 100%)” value is reported as 280%.
With `O=C(CCl)c1cccc(Cl)c1` [2-chloro-1-(3′-chlorophenyl)ethanone] the “% activity (relative value, activity to N-benzyl-3-pyrrolidinone taken as 100%)” value was 463%.
In the case of `CCCCCC(C)=O` [2-heptanone], the “% activity (relative value, activity to N-benzyl-3-pyrrolidinone taken as 100%)” value is reported as 2777%.
With `CCCCC(C)=O` [2-hexanone] the “% activity (relative value, activity to N-benzyl-3-pyrrolidinone taken as 100%)” value was 5043%.
In the case of `O=C(CO)c1ccccc1` [2-hydroxyacetophenone], the “% activity (relative value, activity to N-benzyl-3-pyrrolidinone taken as 100%)” value is reported as 30%.
With `CCC(=O)C(=O)O` [2-keto-n-butyric acid] the “% activity (relative value, activity to N-benzyl-3-pyrrolidinone taken as 100%)” value was 15%.
For `CC(C=O)c1ccccc1` (stereo not drawn) [2-phenylpropionaldehyde], the “% activity (relative value, activity to N-benzyl-3-pyrrolidinone taken as 100%)” value was 706%.
With `O=Cc1ccccn1` [2-pyridinecarbaldehyde] the “% activity (relative value, activity to N-benzyl-3-pyrrolidinone taken as 100%)” value was 82%.
With `O=C1CCc2ccccc2C1` [2-tetoralone] the “% activity (relative value, activity to N-benzyl-3-pyrrolidinone taken as 100%)” value was 1721%.
In the case of `COc1ccc(C(C)=O)cc1OC` [3,4-dimethoxyacetophenone], the “% activity (relative value, activity to N-benzyl-3-pyrrolidinone taken as 100%)” value is reported as 2073%.
With `CC(=O)c1cccnc1` [3-acetylpyridine] the “% activity (relative value, activity to N-benzyl-3-pyrrolidinone taken as 100%)” value was 788%.
For `O=CCCc1ccccc1` [3-phenylpropionaldehyde], the “% activity (relative value, activity to N-benzyl-3-pyrrolidinone taken as 100%)” value was 685%.
For `CC(=O)c1ccncc1` [4-acetylpyridine], the “% activity (relative value, activity to N-benzyl-3-pyrrolidinone taken as 100%)” value was 6448%.
For `CC(=O)c1ccc(F)cc1` [4-fluoroacetophenone], the “% activity (relative value, activity to N-benzyl-3-pyrrolidinone taken as 100%)” value was 366%.
In the case of `CC(=O)CCO` [4-hydroxy-2-butanone], the “% activity (relative value, activity to N-benzyl-3-pyrrolidinone taken as 100%)” value is reported as 33%.
With `CC(=O)CC(C)C` [4-methyl-2-pentanone] the “% activity (relative value, activity to N-benzyl-3-pyrrolidinone taken as 100%)” value was 962%.
In the case of `COc1cc2c(cc1OC)CC(=O)CC2` [6,7-dimethoxy-2-tetoralone], the “% activity (relative value, activity to N-benzyl-3-pyrrolidinone taken as 100%)” value is reported as 2267%.
With `COc1ccc2c(c1)CCC(=O)C2` [6-methoxy-2-tetoralone] the “% activity (relative value, activity to N-benzyl-3-pyrrolidinone taken as 100%)” value was 156%.
For `COc1ccc2c(c1)CC(=O)CC2` [7-methoxy-2-tetoralone], the “% activity (relative value, activity to N-benzyl-3-pyrrolidinone taken as 100%)” value was 7084%.
In the case of `O=C1CCN(Cc2ccccc2)C1` [N-benzyl-3-pyrrolidinone], the “% activity (relative value, activity to N-benzyl-3-pyrrolidinone taken as 100%)” value is reported as 100%.
In the case of `CC(C)=O` [acetone], the “% activity (relative value, activity to N-benzyl-3-pyrrolidinone taken as 100%)” value is reported as 194%.
In the case of `CC(=O)c1ccccc1` [acetophenone], the “% activity (relative value, activity to N-benzyl-3-pyrrolidinone taken as 100%)” value is reported as 181%.
In the case of `CC(=O)CC(C)=O` [acetylacetone], the “% activity (relative value, activity to N-benzyl-3-pyrrolidinone taken as 100%)” value is reported as 1354%.
For `O=Cc1ccccc1` [benzaldehyde], the “% activity (relative value, activity to N-benzyl-3-pyrrolidinone taken as 100%)” value was 21%.
For `O=C(c1ccccc1)C(O)c1ccccc1` (stereo not drawn) [benzoin], the “% activity (relative value, activity to N-benzyl-3-pyrrolidinone taken as 100%)” value was 13%.
For `CC(=O)CC(=O)OCc1ccccc1` [benzyl acetoacetate], the “% activity (relative value, activity to N-benzyl-3-pyrrolidinone taken as 100%)” value was 2015%.
For `CC(=O)CCc1ccccc1` [benzylacetone], the “% activity (relative value, activity to N-benzyl-3-pyrrolidinone taken as 100%)” value was 410%.
With `O=C1CCCC1` [cyclopentanone] the “% activity (relative value, activity to N-benzyl-3-pyrrolidinone taken as 100%)” value was 103%.
With `CC(=O)C1CC1` [cyclopropyl methyl ketone] the “% activity (relative value, activity to N-benzyl-3-pyrrolidinone taken as 100%)” value was 20%.
With `CC(=O)C(C)=O` [diacetyl] the “% activity (relative value, activity to N-benzyl-3-pyrrolidinone taken as 100%)” value was 1614%.
For `CCC(=O)CC` [diethyl ketone], the “% activity (relative value, activity to N-benzyl-3-pyrrolidinone taken as 100%)” value was 32%.
In the case of `CC1(C)COC(=O)C1=O` [dihydro-4,4-dimethyl-2,3-furandione], the “% activity (relative value, activity to N-benzyl-3-pyrrolidinone taken as 100%)” value is reported as 1314%.
For `CCOC(=O)C(Cl)C(=O)c1ccccc1` (stereo not drawn) [ethyl 2-chloro-3-oxo-3-phenyloropionate], the “% activity (relative value, activity to N-benzyl-3-pyrrolidinone taken as 100%)” value was 52%.
In the case of `CCOC(=O)C(Cl)C(C)=O` (stereo not drawn) [ethyl 2-chloroacetoacetate], the “% activity (relative value, activity to N-benzyl-3-pyrrolidinone taken as 100%)” value is reported as 8907%.
For `C=CC(C(C)=O)C(=O)OCC` (stereo not drawn) [ethyl 2-eteneacetoacetate], the “% activity (relative value, activity to N-benzyl-3-pyrrolidinone taken as 100%)” value was 429%.
With `CCOC(=O)C(C)C(C)=O` (stereo not drawn) [ethyl 2-methylacetoacetate] the “% activity (relative value, activity to N-benzyl-3-pyrrolidinone taken as 100%)” value was 239%.
In the case of `CCCCCCCCC(=O)C(=O)OCC` [ethyl 2-oxodecanoate], the “% activity (relative value, activity to N-benzyl-3-pyrrolidinone taken as 100%)” value is reported as 18%.
For `CCOC(=O)C1CCC(=O)C1` (stereo not drawn) [ethyl 3-oxocyclopentane carboxylate], the “% activity (relative value, activity to N-benzyl-3-pyrrolidinone taken as 100%)” value was 87%.
With `CCOC(=O)CC(=O)COC(C)=O` [ethyl 4-acetoxyacetoacetate] the “% activity (relative value, activity to N-benzyl-3-pyrrolidinone taken as 100%)” value was 4234%.
In the case of `CCOC(=O)CC(=O)CN=[N+]=[N-]` [ethyl 4-azideacetoacetate], the “% activity (relative value, activity to N-benzyl-3-pyrrolidinone taken as 100%)” value is reported as 804%.
For `CCOC(=O)CC(=O)COCc1ccccc1` [ethyl 4-benzyloxyacetoacetate], the “% activity (relative value, activity to N-benzyl-3-pyrrolidinone taken as 100%)” value was 3186%.
In the case of `CCOC(=O)CC(=O)CBr` [ethyl 4-bromoacetoacetate], the “% activity (relative value, activity to N-benzyl-3-pyrrolidinone taken as 100%)” value is reported as 4099%.
For `CCOC(=O)CC(=O)CCl` [ethyl 4-chloroacetoacetate], the “% activity (relative value, activity to N-benzyl-3-pyrrolidinone taken as 100%)” value was 683%.
With `CCOC(=O)CC(=O)CO` [ethyl 4-hydroxyacetoacetate] the “% activity (relative value, activity to N-benzyl-3-pyrrolidinone taken as 100%)” value was 1774%.
For `CCOC(=O)CC(C)=O` [ethyl acetoacetate], the “% activity (relative value, activity to N-benzyl-3-pyrrolidinone taken as 100%)” value was 4236%.
For `CCOC(=O)CC(=O)c1ccccc1` [ethyl benzoylacetate], the “% activity (relative value, activity to N-benzyl-3-pyrrolidinone taken as 100%)” value was 98%.
With `CCOC(=O)C(C)=O` [ethyl pyruvate] the “% activity (relative value, activity to N-benzyl-3-pyrrolidinone taken as 100%)” value was 6232%.
For `O=CCCCC=O` [glutaraldehyde], the “% activity (relative value, activity to N-benzyl-3-pyrrolidinone taken as 100%)” value was 1339%.
In the case of `CC(=O)CO` [hydroxyacetone], the “% activity (relative value, activity to N-benzyl-3-pyrrolidinone taken as 100%)” value is reported as 100%.
In the case of `CC(=O)CCC(=O)O` [levulinic acid], the “% activity (relative value, activity to N-benzyl-3-pyrrolidinone taken as 100%)” value is reported as 11%.
For `O=Cc1cccc(Cl)c1` [m-chlorobenzaldehyde], the “% activity (relative value, activity to N-benzyl-3-pyrrolidinone taken as 100%)” value was 301%.
For `CC(=O)c1cccc(O)c1` [m-hydroxyacetophenone], the “% activity (relative value, activity to N-benzyl-3-pyrrolidinone taken as 100%)” value was 61%.
With `CC(=O)c1cccc([N+](=O)[O-])c1` [m-nitroacetophenone] the “% activity (relative value, activity to N-benzyl-3-pyrrolidinone taken as 100%)” value was 6927%.
For `O=Cc1cccc([N+](=O)[O-])c1` [m-nitrobenzaldehyde], the “% activity (relative value, activity to N-benzyl-3-pyrrolidinone taken as 100%)” value was 683%.
For `COC(=O)CC(C)=O` [methyl acetoacetate], the “% activity (relative value, activity to N-benzyl-3-pyrrolidinone taken as 100%)” value was 8341%.
In the case of `CC(=O)C=O` [methyl glyoxal], the “% activity (relative value, activity to N-benzyl-3-pyrrolidinone taken as 100%)” value is reported as 345%.
For `COC(=O)C(C)=O` [methyl pyruvate], the “% activity (relative value, activity to N-benzyl-3-pyrrolidinone taken as 100%)” value was 1889%.
In the case of `CCCC=O` [n-butylaldehyde], the “% activity (relative value, activity to N-benzyl-3-pyrrolidinone taken as 100%)” value is reported as 728%.
With `CCCCCC=O` [n-hexylaldehyde] the “% activity (relative value, activity to N-benzyl-3-pyrrolidinone taken as 100%)” value was 2225%.
In the case of `CCCCCCCCOC(=O)CC(=O)CCl` [n-octyl 4-chloroacetoacetate], the “% activity (relative value, activity to N-benzyl-3-pyrrolidinone taken as 100%)” value is reported as 224%.
In the case of `O=Cc1ccccc1Cl` [o-chlorobenzaldehyde], the “% activity (relative value, activity to N-benzyl-3-pyrrolidinone taken as 100%)” value is reported as 9%.
In the case of `O=Cc1ccccc1[N+](=O)[O-]` [o-nitrobenzaldehyde], the “% activity (relative value, activity to N-benzyl-3-pyrrolidinone taken as 100%)” value is reported as 33%.
With `O=C(O)CC(=O)C(=O)O` [oxalacetic acid] the “% activity (relative value, activity to N-benzyl-3-pyrrolidinone taken as 100%)” value was 14%.
For `CC(=O)c1ccc(Cl)cc1` [p-chloroacetophenone], the “% activity (relative value, activity to N-benzyl-3-pyrrolidinone taken as 100%)” value was 2354%.
In the case of `O=Cc1ccc(Cl)cc1` [p-chlorobenzaldehyde], the “% activity (relative value, activity to N-benzyl-3-pyrrolidinone taken as 100%)” value is reported as 117%.
With `CC(=O)c1ccc(C)cc1` [p-methylacetophenone] the “% activity (relative value, activity to N-benzyl-3-pyrrolidinone taken as 100%)” value was 521%.
With `O=Cc1ccc([N+](=O)[O-])cc1` [p-nitrobenzaldehyde] the “% activity (relative value, activity to N-benzyl-3-pyrrolidinone taken as 100%)” value was 1296%.
In the case of `CCC=O` [propionaldehyde], the “% activity (relative value, activity to N-benzyl-3-pyrrolidinone taken as 100%)” value is reported as 204%.
With `CCC(=O)c1ccccc1` [propiophenone] the “% activity (relative value, activity to N-benzyl-3-pyrrolidinone taken as 100%)” value was 27%.
With `O=Cc1ccncc1` [pyridine-4-aldehyde] the “% activity (relative value, activity to N-benzyl-3-pyrrolidinone taken as 100%)” value was 441%.
With `CC(=O)CC(=O)OC(C)(C)C` [tert-butyl acetoacetate] the “% activity (relative value, activity to N-benzyl-3-pyrrolidinone taken as 100%)” value was 5634%.

Test system: not listed separately
Experiment: Determination of enzyme properties of purified RDR
Type: biochemical
Settings: N-benzyl-3-pyrrolidinone 5 mM, coenzyme 0.25 mM, pH 6.5, 30° C.
Experimental: RDR obtained in Example 1 was investigated as to its enzymatic properties. Fundamentally, the enzyme activity was measured by adding the substrate N-benzyl-3-pyrrolidinone (5 mM), the coenzyme […] (0.25 mM) and the enzyme to 100 mM phosphate buffer (pH 6.5), allowing the reaction to proceed at 30° C. for 1 minute, and then measuring the decrease in absorbance at a wavelength of 340 nm.
In the presence of NADH as a coenzyme, the enzyme acted on N-benzyl-3-pyrrolidinone to form (R)-N-benzyl-3-pyrrolidinol with an optical purity of 99.9% ee or more. The enzyme activity measured with NADPH as a coenzyme by the above method was about 0.6% of the activity obtained by using NADH as a coenzyme.
Enzyme activity measurements were carried out by the same enzyme activity measurement method as mentioned above except that the pH was varied in the range of 4.0 to 8.0 using, as the buffer, 100 mM phosphate buffer and 100 mM acetate buffer.
Enzyme activity measurements were carried out by the same enzyme activity measurement method as mentioned above except that the temperature was varied from 20° C. to 60° C.
With “RDR: purified enzyme from Devosia riboflavina IFO 13584 stereoselectively reducing N-benzyl-3-pyrrolidinone to (R)-N-benzyl-3-pyrrolidinol” the “enzyme activity with NADPH as a coenzyme relative to the activity with NADH as a coenzyme” value was “about 0.6%”.
